“Also recorded” adds a separate entry of the source.

Assay [1] has as its system C2C12 mouse skeletal muscle myotubes. As to the kind of experiment: 3H-2-deoxyglucose uptake by fully differentiated C2C12 myotubes. It counts as cell-based. The settings on record: C2C12 myotubes, SEQ ID NO: 73 alone or together with insulin (FIG. 8). On the procedure:
In particular: HBD1 SEQ ID NO: 73 (C18:0-HLGLEEPKK) at 0.8 μM, 1.5 μM, and 2.3 μM; or 1.5 μM SEQ ID NO: 73 (C18:0-HLGLEEPKK) for 2, 4, and 16 hours prior to testing glucose uptake.
The studies were performed using cultured, fully differentiated C2C12 mouse skeletal muscle myotubes. The cells were prepared by growing C2C12 cells to confluent density in DMEM with 25 mM glucose and 10% fetal bovine serum in 24 well plates. At this time, the medium was changed to differentiation medium (DMEM with 25 mM glucose and 2% horse serum) for 6 days with medium changed every third day. The various treatments were diluted in serum-free medium and, after washing the cells with serum-free medium, were added to the cells and incubated for 2 hours or alternative times, depending on the treatment. At the end of incubation period, the media was removed and 1.0 ml of glucose-free Krebs ringer bicarbonate buffer (pH 7.4), containing the same treatments, was added and incubation continued for 10 minutes. At the end of the 10 min incubation period, ^3H-2-deoxyglucose ([…]) (specific activity=8 Ci/mmole) was added directly to all wells, and the incubation continued for an additional […]. The wells were then rinsed three times with ice cold phosphate buffered saline, the cells were extracted with 0.5 N NaOH, and the ^3H-2-deoxyglucose content of the cell lysate quantitated by scintillation counting.

A further assay relates to AMPK. As to the kind of experiment: AMPK phosphorylation (immunoblot anti-pAMPK T172) in C2C12 myotubes. The format is cell-based, mouse. The settings on record: C2C12 myotubes treated with SEQ ID NO: 73 (FIG. 7). On the procedure:
In particular: HBD1 SEQ ID NO: 73 (C18:0-HLGLEEPKK). The AMPK pathway is both insulin and IGF1 independent, but acts ultimately to induce GLUT4 translocation to the cell membrane to facilitate the uptake and metabolism of glucose.
For signaling studies the cells were prepared the same way except 6-well plates were used. After 6 days incubation in differentiating medium, the cells were washed with serum-free medium. The various treatments were then added in serum free medium containing 0.1% BSA. HBD1 peptides were added and incubated for 8 hours. When utilizing IGF-I, incubation was for 15 minutes after IGF-1 addition. Following incubation the cells were lysed in RIPA buffer and sonicated. The cell lysate was centrifuged and the supernatant analyzed for either Akt or AMPK by SDS PAGE using a 10% gel followed by immunoblotting with the appropriate antibody.
To examine further the intracellular transduction pathways utilized by the HBD1 peptides, following treatment with HBD1 peptide SEQ ID NO: 73 (C18:0-HLGLEEPKK), cell lysate proteins, were separated by SDS PAGE and immunoblotted with anti-pAMPK T172.

The next assay has as its system 3T3-LI adipocytes. Briefly: [3H]-2-deoxyglucose uptake by fully differentiated 3T3-LI adipocytes. The format is cell-based, mouse. Particulars: 3 μg/ml for 24 hours. How it is done:
The cells were exposed to the test compounds at a concentration of 3 μg/ml for 24 hours before testing for [^3H]-2-deoxyglucose uptake.
3T3-LI cells are a mouse fibroblast cell line which when cultured under specific conditions, differentiate into adipocytes.
Differentiation of 3T3-LI cells into adipocytes was achieved using the following protocol. 3T3-L1 cells were seeded in 24-well plates and cultured in 3T3-L1 maintenance medium (DMEM containing 10% fetal bovine serum, 4 mM L-glutamine 1 mM, sodium pyruvate) until the cells were 100% confluent. The cells were then fed with 3T3-L1 maintenance medium and cultured for a further 48 h. To initiate differentiation into adipocytes, the medium was changed to Differentiation medium 1 (DMEM containing 10% fetal bovine serum, 4 mM L-glutamine, 1 mM sodium pyruvate, 0.5 mM IBMX, […]), and cultured for a further 2 days. The medium was then changed to Differentiation medium 2 (DMEM containing 10% fetal bovine serum, 4 mM L-glutamine, 1 mM sodium pyruvate, 1 mg/ml insulin), and cultured for a further 2 days. The medium was then changed to Adipocyte Maintenance medium (DMEM containing 10% fetal bovine serum, 4 mM L-glutamine, 1 mM sodium pyruvate), and cultured for a further 7 days. During this time, the medium was changed every other day. The now fully differentiated adipocytes were utilized for glucose uptake experiments (day 11 from initiation of differentiation). Stock solutions of the HBD1 peptides to be tested were prepared by dilution with 0.9% NaCl solution under sterile conditions in a laminar flow cabinet to a concentration of 1 mg/ml, based on net peptide content. The solutions were homogenized by gentle inversion. Test items were prepared from the stock solutions, and remaining stock solution was aliquoted and stored at −20° C. and used without repeated freeze-thaw cycles.
Glucose uptake experiments were carried our using the following protocol. Prior to beginning the experiment, 100 ml of Krebs Ringer bicarbonate buffer (KRBB)(25 mM Hepes pH 7.4, 118 mM NaCl, 5 mM NaHCO3, 4.7 mM KCl, 1.2 mM KH2PO4, 1.2 mM MgSO4, 2.5 mM CaCl2, 0.2% BSA—Filtered using a 0.2 μm filter) and 100 ml of Incubation medium (DMEM containing 4 mM L-glutamine, 1 mM sodium pyruvate, 1% penicillin streptomycin, 0.2% BSA—Filtered using a 0.2 μm filter) were pre-warmed to 37° C., and 500 ml of KRBB was chilled on ice. Stock solutions of test compounds were diluted to 3 μg/ml final concentrations in pre-warmed Incubation medium and in pre-warmed KRBB. Insulin (positive control), previously diluted 1:1000 in sterile 0.9% NaCl, was further diluted in 10 ml of both medium and buffer to a final concentration of 1 nM. All traces of the medium were carefully removed from the cells using a fine tip. […]

For another assay, the system named is mice. Particulars: publication Xi, 2013; cited from earlier work.

Consider `c1cc(-c2cnn3cc(-c4ccc(OCCN5CCCCC5)cc4)cnc23)ccn1` [Compound C, reference compound], for which, in assay [1], the “effect of blocker on SEQ ID NO: 73-stimulated glucose uptake” value is listed as “completely abolished; also recorded: prevented”. Besides, in the assay with AMPK, the “effect of blocker on SEQ ID NO: 73-induced AMPK phosphorylation” value is reported as “completely abolished; also recorded: prevented”.
As to HHLGLEEPKK [SEQ ID NO: 16], the “glucose uptake by 3T3-LI adipocytes” value in the assay on 3T3-LI adipocytes is listed as “stimulated increased glucose uptake”.
Still for that read-out and setting: as for HLGLEEPKK [SEQ ID NO: 10], the entry is “stimulated increased glucose uptake”.
As to KHHLGLEEPKKLR [SEQ ID NO: 1], the “glucose uptake by 3T3-LI adipocytes” value in the assay on 3T3-LI adipocytes is listed as “stimulated increased glucose uptake”. Also, in the assay with mice, the “body weight and fat accumulation” value is “decrease body weight and fat accumulation”; the glucose tolerance entry is given as “no effect”.

(Values after US11192932B2, “Heparin-binding domain of IGFBP-2 in the treatment of metabolic disorders” (Amolyt Pharma, priority 2018, dated 2021).)
